Source: ChEMBL document CHEMBL4507291 (2021)

How the values were obtained:
[1] = target: Cyclin-dependent kinase 9 (Homo sapiens) (UniProt P50750)
[2] = target: Calcium/calmodulin-dependent protein kinase type 1B (Homo sapiens) (UniProt Q6P2M8)
[3] = target: T1, 5-hydroxytryptamine receptor 3A (Homo sapiens) (UniProt P46098); settings: Compound concentration 10.0 uM
T1 sequence (whole entry): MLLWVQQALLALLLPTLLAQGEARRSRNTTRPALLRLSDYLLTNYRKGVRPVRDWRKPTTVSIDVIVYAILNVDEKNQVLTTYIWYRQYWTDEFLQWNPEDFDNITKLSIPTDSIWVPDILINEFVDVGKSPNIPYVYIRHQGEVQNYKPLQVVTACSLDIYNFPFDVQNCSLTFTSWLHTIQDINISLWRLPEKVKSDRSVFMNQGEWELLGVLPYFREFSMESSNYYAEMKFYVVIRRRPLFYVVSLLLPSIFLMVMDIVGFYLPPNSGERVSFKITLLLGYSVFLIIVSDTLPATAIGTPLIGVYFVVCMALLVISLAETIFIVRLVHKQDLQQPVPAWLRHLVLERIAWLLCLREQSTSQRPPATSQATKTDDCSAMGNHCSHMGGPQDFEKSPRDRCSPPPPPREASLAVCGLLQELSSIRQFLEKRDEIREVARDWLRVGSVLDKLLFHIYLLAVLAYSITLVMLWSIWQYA

[4] = target: Homeodomain-interacting protein kinase 1 (Homo sapiens) (UniProt Q86Z02)
Homeodomain-interacting protein kinase 1 (Homo sapiens), sequence (Q86Z02 whole entry, looked up): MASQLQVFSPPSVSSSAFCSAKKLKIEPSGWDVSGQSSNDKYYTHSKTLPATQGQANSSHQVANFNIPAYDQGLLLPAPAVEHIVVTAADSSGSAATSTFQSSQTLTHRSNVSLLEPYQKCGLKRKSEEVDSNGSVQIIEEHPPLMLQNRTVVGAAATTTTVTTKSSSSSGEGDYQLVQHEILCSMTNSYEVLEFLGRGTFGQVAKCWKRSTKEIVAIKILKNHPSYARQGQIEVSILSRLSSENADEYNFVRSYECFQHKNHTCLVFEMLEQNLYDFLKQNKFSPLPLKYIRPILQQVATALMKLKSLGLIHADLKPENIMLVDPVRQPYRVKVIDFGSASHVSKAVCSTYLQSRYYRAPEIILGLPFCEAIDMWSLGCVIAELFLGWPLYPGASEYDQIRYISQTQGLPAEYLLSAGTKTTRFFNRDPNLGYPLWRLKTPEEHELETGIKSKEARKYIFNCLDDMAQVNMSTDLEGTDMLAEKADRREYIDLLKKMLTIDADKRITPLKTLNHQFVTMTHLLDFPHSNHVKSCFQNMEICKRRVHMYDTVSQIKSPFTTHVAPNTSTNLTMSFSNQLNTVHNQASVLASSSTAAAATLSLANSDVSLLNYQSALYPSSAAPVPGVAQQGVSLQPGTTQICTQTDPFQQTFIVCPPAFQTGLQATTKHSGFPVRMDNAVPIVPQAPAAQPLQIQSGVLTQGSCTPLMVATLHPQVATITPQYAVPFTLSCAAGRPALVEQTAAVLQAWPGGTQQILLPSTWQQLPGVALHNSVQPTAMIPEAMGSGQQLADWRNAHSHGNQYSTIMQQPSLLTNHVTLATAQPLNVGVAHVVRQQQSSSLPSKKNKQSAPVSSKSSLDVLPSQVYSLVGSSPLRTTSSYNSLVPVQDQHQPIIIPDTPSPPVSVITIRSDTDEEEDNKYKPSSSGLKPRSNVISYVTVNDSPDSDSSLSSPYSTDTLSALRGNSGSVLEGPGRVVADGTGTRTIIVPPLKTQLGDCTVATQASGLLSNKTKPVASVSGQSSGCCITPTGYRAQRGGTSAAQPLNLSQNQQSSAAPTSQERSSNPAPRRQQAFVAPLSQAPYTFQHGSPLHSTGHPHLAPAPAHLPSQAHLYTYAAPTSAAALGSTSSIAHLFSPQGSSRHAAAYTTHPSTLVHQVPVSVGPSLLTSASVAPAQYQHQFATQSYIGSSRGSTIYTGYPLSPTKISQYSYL

[5] = target: Mitogen-activated protein kinase 1 (Homo sapiens) (UniProt P28482)
[6] = target: Serine/threonine-protein kinase Nek6 (Homo sapiens) (UniProt Q9HC98)
Serine/threonine-protein kinase Nek6 (Homo sapiens), sequence (Q9HC98 whole entry): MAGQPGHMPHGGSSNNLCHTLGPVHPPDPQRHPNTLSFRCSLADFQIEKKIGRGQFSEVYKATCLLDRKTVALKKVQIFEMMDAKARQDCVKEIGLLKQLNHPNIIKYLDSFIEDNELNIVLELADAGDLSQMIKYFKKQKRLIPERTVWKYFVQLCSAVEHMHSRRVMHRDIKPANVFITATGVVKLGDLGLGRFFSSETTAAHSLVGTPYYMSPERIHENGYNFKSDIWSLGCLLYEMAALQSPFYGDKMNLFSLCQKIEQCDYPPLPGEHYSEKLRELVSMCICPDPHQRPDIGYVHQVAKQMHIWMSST

[7] = target: Fibroblast growth factor receptor 1 (Homo sapiens) (UniProt P11362)
Fibroblast growth factor receptor 1 (Homo sapiens), sequence (P11362 22-822 limits assumed): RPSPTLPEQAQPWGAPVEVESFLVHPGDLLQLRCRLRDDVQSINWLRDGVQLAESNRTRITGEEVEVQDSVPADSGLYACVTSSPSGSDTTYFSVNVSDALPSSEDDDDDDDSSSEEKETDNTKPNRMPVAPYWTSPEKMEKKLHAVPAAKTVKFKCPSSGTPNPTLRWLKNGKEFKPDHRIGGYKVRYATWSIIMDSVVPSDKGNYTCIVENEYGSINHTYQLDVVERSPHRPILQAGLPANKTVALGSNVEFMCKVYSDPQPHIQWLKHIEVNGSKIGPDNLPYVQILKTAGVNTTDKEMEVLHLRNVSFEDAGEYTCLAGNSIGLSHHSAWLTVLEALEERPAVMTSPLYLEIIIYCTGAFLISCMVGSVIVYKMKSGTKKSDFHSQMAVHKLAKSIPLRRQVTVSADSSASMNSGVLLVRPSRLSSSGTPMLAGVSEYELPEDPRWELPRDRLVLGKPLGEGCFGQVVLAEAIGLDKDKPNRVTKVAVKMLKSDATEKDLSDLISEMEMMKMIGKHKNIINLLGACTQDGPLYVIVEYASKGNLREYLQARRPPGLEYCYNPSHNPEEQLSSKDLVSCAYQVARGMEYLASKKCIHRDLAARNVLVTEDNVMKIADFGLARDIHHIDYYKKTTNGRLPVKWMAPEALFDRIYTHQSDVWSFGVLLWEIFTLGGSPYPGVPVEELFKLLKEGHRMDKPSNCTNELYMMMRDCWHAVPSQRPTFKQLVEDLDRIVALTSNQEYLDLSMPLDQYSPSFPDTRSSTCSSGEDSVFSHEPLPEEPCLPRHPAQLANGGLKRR

[8] = target: Wee1-like protein kinase 2 (Homo sapiens) (UniProt P0C1S8)
Wee1-like protein kinase 2 (Homo sapiens), sequence (P0C1S8 whole entry, looked up, canonical isoform): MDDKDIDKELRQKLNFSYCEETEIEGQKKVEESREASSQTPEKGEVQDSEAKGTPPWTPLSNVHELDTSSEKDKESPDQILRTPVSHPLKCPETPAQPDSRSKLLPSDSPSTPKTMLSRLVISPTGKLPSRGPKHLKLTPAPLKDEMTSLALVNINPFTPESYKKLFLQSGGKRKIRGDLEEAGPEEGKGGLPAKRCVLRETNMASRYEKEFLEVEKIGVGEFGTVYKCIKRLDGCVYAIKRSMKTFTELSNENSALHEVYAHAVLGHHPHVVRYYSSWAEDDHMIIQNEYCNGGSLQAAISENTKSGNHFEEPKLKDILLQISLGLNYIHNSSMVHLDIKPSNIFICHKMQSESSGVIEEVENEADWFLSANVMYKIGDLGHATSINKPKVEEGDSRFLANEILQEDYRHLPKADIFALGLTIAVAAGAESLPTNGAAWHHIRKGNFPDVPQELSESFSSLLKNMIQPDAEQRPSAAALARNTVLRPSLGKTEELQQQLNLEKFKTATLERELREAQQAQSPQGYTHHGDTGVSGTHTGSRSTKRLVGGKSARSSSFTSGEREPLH

[9] = target: Phosphatidylinositol 4,5-bisphosphate 3-kinase catalytic subunit delta isoform (Homo sapiens) (UniProt O00329)
[10] = target: Serine/threonine-protein kinase Nek11 (Homo sapiens) (UniProt Q8NG66)
Serine/threonine-protein kinase Nek11 (Homo sapiens), sequence (Q8NG66 whole entry): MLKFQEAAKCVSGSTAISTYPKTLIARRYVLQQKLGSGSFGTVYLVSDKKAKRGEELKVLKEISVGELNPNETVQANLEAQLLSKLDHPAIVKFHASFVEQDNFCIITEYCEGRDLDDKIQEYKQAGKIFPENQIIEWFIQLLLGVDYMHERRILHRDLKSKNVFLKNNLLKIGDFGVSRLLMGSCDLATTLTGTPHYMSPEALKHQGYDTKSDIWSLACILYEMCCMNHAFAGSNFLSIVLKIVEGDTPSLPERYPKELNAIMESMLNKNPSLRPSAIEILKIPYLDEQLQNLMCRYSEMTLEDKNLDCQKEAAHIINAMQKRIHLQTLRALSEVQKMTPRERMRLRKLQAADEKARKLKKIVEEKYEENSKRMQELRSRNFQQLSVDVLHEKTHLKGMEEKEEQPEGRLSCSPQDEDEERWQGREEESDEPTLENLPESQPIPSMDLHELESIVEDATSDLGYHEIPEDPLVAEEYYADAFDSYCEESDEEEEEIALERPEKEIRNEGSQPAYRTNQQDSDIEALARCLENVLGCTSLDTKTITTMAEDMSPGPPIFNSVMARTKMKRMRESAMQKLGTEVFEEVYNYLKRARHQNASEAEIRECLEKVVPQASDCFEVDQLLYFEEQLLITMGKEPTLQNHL

[11] = target: T2, Mitogen-activated protein kinase 12 (Homo sapiens) (UniProt P53778)
T2 sequence (whole entry): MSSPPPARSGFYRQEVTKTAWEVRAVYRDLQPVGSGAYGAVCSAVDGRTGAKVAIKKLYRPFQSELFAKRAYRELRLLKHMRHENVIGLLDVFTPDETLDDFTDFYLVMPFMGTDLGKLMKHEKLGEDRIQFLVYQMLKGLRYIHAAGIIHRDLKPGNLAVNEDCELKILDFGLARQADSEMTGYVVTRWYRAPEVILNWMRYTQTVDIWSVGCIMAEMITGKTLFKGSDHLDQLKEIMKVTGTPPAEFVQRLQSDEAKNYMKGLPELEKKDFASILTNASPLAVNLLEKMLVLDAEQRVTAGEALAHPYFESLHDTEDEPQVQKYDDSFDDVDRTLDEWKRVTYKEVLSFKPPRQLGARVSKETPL

[12] = target: Cyclin-dependent kinase 4 (Homo sapiens) (UniProt P11802)
Cyclin-dependent kinase 4 (Homo sapiens), sequence (P11802 whole entry): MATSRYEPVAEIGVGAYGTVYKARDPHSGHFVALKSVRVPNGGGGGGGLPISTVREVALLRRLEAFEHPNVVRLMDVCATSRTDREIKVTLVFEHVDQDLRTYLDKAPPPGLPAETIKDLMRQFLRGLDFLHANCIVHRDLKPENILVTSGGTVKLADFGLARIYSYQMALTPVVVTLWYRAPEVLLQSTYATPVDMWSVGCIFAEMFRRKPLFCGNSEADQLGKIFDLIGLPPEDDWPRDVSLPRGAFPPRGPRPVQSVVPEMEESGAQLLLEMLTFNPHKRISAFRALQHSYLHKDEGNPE

[13] = target: Serine/threonine-protein kinase Nek10 (Homo sapiens) (UniProt Q6ZWH5)
[14] = target: T3, Serine/threonine-protein kinase NLK (Homo sapiens) (UniProt Q9UBE8)
T3 sequence (whole entry): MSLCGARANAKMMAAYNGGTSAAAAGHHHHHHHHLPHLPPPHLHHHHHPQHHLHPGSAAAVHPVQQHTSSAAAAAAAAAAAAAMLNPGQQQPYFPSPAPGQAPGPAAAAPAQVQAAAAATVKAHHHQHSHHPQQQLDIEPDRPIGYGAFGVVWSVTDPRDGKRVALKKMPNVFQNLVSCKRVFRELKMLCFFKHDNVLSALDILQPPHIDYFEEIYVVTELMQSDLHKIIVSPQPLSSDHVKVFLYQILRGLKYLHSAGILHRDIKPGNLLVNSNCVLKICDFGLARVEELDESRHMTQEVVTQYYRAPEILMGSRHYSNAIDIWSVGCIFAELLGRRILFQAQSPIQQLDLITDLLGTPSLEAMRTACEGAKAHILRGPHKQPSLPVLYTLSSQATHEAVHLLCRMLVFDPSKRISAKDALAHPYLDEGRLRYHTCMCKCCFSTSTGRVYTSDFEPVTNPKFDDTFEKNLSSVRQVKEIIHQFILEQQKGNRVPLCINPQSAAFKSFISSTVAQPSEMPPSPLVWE

[15] = target: T4, Tyrosine-protein kinase ZAP-70 (Homo sapiens) (UniProt P43403)
T4 sequence (whole entry): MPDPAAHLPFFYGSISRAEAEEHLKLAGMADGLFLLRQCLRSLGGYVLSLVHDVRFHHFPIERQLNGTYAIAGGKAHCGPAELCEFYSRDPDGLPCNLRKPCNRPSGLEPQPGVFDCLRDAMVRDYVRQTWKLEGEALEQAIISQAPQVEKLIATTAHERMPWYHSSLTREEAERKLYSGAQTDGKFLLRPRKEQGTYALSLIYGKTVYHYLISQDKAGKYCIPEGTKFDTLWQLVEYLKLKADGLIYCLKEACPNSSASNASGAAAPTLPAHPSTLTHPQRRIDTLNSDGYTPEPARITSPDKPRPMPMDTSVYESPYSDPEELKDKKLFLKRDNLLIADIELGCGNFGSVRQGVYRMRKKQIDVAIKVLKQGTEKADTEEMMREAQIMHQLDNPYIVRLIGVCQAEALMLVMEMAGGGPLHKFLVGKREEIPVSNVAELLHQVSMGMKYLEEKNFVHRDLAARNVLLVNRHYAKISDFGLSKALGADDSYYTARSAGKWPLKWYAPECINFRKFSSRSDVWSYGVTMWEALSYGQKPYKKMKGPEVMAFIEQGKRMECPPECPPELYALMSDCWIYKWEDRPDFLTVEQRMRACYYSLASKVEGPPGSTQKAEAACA

[16] = target: Interleukin-1 receptor-associated kinase 4 (Homo sapiens) (UniProt Q9NWZ3)
Interleukin-1 receptor-associated kinase 4 (Homo sapiens), sequence (Q9NWZ3 whole entry): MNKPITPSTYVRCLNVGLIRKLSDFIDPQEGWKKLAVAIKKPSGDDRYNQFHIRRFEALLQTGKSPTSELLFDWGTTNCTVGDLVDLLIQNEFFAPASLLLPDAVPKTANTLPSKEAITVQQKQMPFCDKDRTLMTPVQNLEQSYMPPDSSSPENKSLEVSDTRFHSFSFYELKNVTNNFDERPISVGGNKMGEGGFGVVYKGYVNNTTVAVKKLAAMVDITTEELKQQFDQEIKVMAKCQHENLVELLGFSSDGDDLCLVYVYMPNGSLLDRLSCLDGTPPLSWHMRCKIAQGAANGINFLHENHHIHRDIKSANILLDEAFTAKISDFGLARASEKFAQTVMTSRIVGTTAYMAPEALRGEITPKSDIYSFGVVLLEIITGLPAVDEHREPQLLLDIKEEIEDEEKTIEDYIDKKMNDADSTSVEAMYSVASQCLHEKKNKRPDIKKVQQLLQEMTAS

[17] = Compound concentration 1000.0 nM
[18] = Compound concentration 100.0 nM

Calcium/calmodulin-dependent protein kinase type 1B (Homo sapiens), sequence (Q6P2M8 whole entry): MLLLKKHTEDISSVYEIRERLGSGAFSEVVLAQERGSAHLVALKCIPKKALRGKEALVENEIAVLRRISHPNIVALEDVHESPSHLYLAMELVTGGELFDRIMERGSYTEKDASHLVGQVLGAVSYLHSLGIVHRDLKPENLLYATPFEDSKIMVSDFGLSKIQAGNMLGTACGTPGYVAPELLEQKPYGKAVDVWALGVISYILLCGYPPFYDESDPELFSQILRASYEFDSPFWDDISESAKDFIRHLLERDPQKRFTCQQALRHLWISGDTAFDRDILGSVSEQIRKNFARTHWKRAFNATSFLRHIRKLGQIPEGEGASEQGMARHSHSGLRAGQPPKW
Cyclin-dependent kinase 9 (Homo sapiens), sequence (P50750 whole entry): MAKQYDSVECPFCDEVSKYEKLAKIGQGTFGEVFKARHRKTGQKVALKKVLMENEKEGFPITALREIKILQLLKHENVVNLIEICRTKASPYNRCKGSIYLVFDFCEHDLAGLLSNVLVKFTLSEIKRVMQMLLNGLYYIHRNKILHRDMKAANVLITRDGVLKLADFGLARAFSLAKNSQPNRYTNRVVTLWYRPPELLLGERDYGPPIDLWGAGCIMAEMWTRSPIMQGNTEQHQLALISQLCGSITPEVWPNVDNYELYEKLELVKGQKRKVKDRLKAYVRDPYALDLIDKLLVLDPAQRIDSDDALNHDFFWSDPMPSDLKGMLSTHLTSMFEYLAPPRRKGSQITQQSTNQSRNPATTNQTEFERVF

C[C@@H]1CN(c2cc(-c3nn(C)c4ccc(OC5(C)CC5)cc34)ncn2)C[C@H](C)O1 [MLi-2-NC]
inactive: residual activity [1, 17] 84% | residual activity [2, 17] 100% | inhibition [3] -3.11% | residual activity [4, 17] 85% | residual activity [5, 17] 100% | residual activity [6, 17] 100% | residual activity [7, 17] 100% | residual activity [8, 17] 96% | residual activity [9, 17] 97% | residual activity [10, 17] 58% | residual activity [11, 17] 100% | residual activity [12, 17] 71% | residual activity [13, 17] 89% | residual activity [14, 17] 96% | residual activity [15, 17] 100% | residual activity [16, 17] 76%

C[C@@H]1CN(c2cc(-c3n[nH]c4ccc(OC5(C)CC5)cc34)ncn2)C[C@H](C)O1 [MLi-2]
inactive: residual activity [1, 18] 80% | residual activity [2, 18] 67% | inhibition [3] 4.35% | residual activity [4, 18] 69% | residual activity [5, 18] 98% | residual activity [6, 18] 100% | residual activity [7, 18] 100% | residual activity [8, 18] 100% | residual activity [9, 18] 68% | residual activity [10, 18] 100% | residual activity [11, 18] 96% | residual activity [12, 18] 68% | residual activity [13, 18] 69% | residual activity [14, 18] 100% | residual activity [15, 18] 83% | residual activity [16, 18] 90%
